“Also recorded” adds a separate entry of the source.
What was measured:
[1] = tested on: HSC70; assay: Western blot for HSC70 in enriched RGC fraction after systemic administration of GGA (Experiment 1); type: in vivo, rat; conditions: GGA 200 mg/kg daily i.p. 1, 3, 7 days vs control groups
Experimental: Three experiments are summarized here, and details are provided in the subsequent sections. […] For Western blotting, twelve rats were equally divided into 6 groups. […] Enriched RGC fraction was harvested from 2 retinas of each group and used for Western blot analysis. The same experiment for isolation of RGCs and Western blotting was repeated with the other 2 retinas-from each group.
GGA was a gift from Esai Co, Ltd (Tokyo, Japan). […] Saline-vehicle was prepared and administered in the same fashion in vehicle-treated control groups.
A previously described method was modified to partially purify RGCs from other retinal cells in rat retinas.38 Briefly, two dissected rat retinas from each subgroup were washed in 2.5 ml of calcium- and magnesium-free phosphate buffered saline (PBS) at pH 7.4, and incubated in 1.25 ml of PBS containing 0.5 mg/ml trypsin and 0.01% deoxyribonuclease for 15 minutes at 37° C. […] The cells were then resuspended in 400 μl of MEM buffer, and the protein concentration in the cell suspension was measured with a bicinchoninic acid (BCA) protein assay kit (Pierce, Rockford, Ill.).
The membrane was blocked by incubation in 0.1% Tween-20 in 100 mM Tris-buffered saline containing 10% nonfat dried milk for 1 hour. […] The immunoreactive bands were detected by chemiluminescence with an enhanced chemiluminescence Western blot reagent (Amersham Pharmacia).

[2] = tested on: HSC70; assay: Quantitative immunohistochemical analysis of HSC70 in the RGCL after 1 week of IOP elevation (Experiment 3); type: in vivo, rat; conditions: among all the groups, 1 week after laser
Experimental: TdT-mediated biotin-dUTP nick end labeling (TUNEL) and immunohistochemical analysis for HSP72 and HSC70 were performed.
Animals were deeply anesthetized with intramuscular injections of 0.8 ml/kg of a cocktail of 5 ml ketamine (100 mg/ml), 2.5 ml xylazine (20 mg/ml), 1.0 ml acepromazine (10 mg/ml), and 1.5 ml normal saline. Then they were transcardially perfused with 4% paraformaldehyde in 0.1 M phosphate buffer. The enucleated eyeballs were immersed in fixative for 1 hour, bisected and post-fixed overnight. The eyes were embedded in paraffin and sectioned at a four-μm thickness along the vertical meridian through the optic nerve head. […] Antigen-antibody complexes were detected by an avidin-biotin-peroxidase technique (Vectastain ABC Kit; Vector Laboratories). […]
Immunohistochemical staining was analyzed quantitatively with a computer-assisted image processing unit (Image-Pro Plus software, Media Cybernetics, Silver Spring, Md.) and the “count-measure” function. […] For each digital image, all individual cells in the RGCL were marked by a masked examiner and the optical density of each cell was measured. The relative intensities of cells in the RGCL were measured and averaged (±SEM) to yield a single value representing one retina.

Geranylgeranylacetone [GGA]
immunoreactivity against HSC70 in RGCs (immunoblot) [1]: no change in HSC70 expression; also recorded: no detectable difference
expression of HSC70 in RGCL (immunoreactive intensity) [2]: no statistically significant difference; also recorded: No change in HSC70 immunoreactivity

— patent US20050009772A1, “Methods and compositions for the treatment of glaucoma and other retinal diseases” (The Regents of the University of California, priority 2003, published 2005)
